The values below come from patent US12533353B2, “Methods of treatment of cancer comprising CDC7 inhibitors” (CARNA BIOSCIENCES, INC., priority 2018, dated 2026).

Read-outs that look alike come from different tables or passages of the source.

Assay [1] has as its system Colo-205 colorectal adenocarcinoma cells. Description: Sequential treatment: SRA141 pre-treatment then partner agent, ATPlite. It counts as cell-based, human. In general terms: In ATP-based viability assays light output follows the ATP content of the culture.
Another assay relates to EOL-1. Description: AML 3D culture, 5 days. It counts as cell-based. The following applies: EOL-1 cell line. As to the method:
(§1) The activity of SRA141 was investigated in in vitro and ex vivo three-dimensional (3D) cultures prepared from three AML cell lines (EOL-1, Molm-16 and MV-4-11) and three AML PDX models (AM5512, AM7440 and AM7577), respectively. Tumor cultures were treated with SRA141 (0.08 to 33 μM) for 5 days.

For another assay, the system named is MV-4-11. Description: AML 3D culture, 5 days. It is filed as cell-based. The following applies: MV-4-11 cell line. The method, then: as §1
For the next assay, the system named is Molm-16. Description: AML 3D culture, 5 days. Particulars: Molm-16 cell line. It counts as cell-based. The method, then: as §1
A further assay deals with AM5512. Description: AML PDX ex vivo 3D culture, 5 days. It counts as cell-based. The method, then:
as §1

A further assay concerns AM7440. Description: AML PDX ex vivo 3D culture, 5 days. It counts as cell-based. The method, then: as §1
The next assay relates to AM7577. Description: AML PDX ex vivo 3D culture, 5 days. It counts as cell-based. As to the method: as §1
The subject of assay [2] is MOLM-13 cells. Description: Sequential treatment: SRA141 pre-treatment then partner agent, ATPlite. It counts as cell-based, human. Particulars: 200 nM SRA141 pre-treatment 48 hrs compared to DMSO pre-treatment.
Description: Flasks of MOLM-13 cells were pre-treated with SRA141 (1 μM and 200 nM) and DMSO control for 48 hrs; cells were washed and seeded into 384-well plates; plates left to incubate for 6 hrs, followed by treatment with trametinib or bexarotene six hours after plating as single agents. After 72 hrs, ATP levels were measured using ATPlite.
The test system of a further assay is COLO-205 cells. Kind of assay: Co-treatment combination screen, synergy score, ATPlite. It is filed as cell-based, human. The following applies: simultaneous combination treatment, 72 hours. The method, then:
(§2) The combination screen was performed using the co-treatment dosing schedule for SRA141 and the partner compound. Both enhancee (SRA141) and enhancer (partner compound) were added at time zero (0 h). Cells were exposed to SRA141 and the enhancer for the entire 72-hour treatment time. All data points were collected via automated processes and were subject to quality control and analyzed using proprietary software.
(§3) The Growth Inhibition (GI) was utilized as a measure of cell growth. GI percentages are calculated by applying the following test and equation: […]
(§4) This formula is derived from the Growth Inhibition calculation used in the National Cancer Institute's NCI-60 high throughput screen. […] These GI calculations were used in all single agent and combination data analysis for the combination screen.
(§5) To measure combination effects in excess of Loewe additivity, a scalar measure was used to characterize the strength of synergistic interaction termed the Synergy Score. The Synergy Score is calculated as: Synergy Score=log fX log fYΣ max(0,Idata)(Idata−ILoewe)
(§6) The fractional inhibition for each component agent and combination point in the matrix is calculated relative to the median of all vehicle-treated control wells. The Synergy Score equation integrates the experimentally-observed activity volume at each point in the matrix in excess of a model surface numerically derived from the activity of the component agents using the Loewe model for additivity. Additional terms in the Synergy Score equation (above) are used to normalize for various dilution factors used for individual agents and to allow for comparison of synergy scores across an entire experiment. The inclusion of positive inhibition gating or an Idata multiplier removes noise near the zero effect level, and biases results for synergistic interactions at that occur at high activity levels. Combinations with higher maximum Growth Inhibition (GI) effects or those which are synergistic at low concentrations will have higher Synergy Scores. Those combinations with Synergy Scores that statistically supersede baseline self-cross values can be considered synergistic. The magnitude of GI effects may be linked to the growth rate of cells which varies for each cell line examined.
(§7) Loewe Volume Score is used to assess the overall magnitude of the combination interaction in excess of the Loewe additivity model. Loewe Volume is particularly useful when distinguishing synergistic increases in a phenotypic activity (positive Loewe Volume) versus synergistic antagonisms (negative Loewe Volume).

Another assay concerns MOLM-13. Kind of assay: Combination of SRA141 with targeted agents, CTG and CTBlue, 72 hours, Bliss CI. It counts as cell-based. The following applies: for combination effect with SRA141: MOLM-13, 72 hours. The method, then: The anti-apoptotic gene BCL-2 was inhibited in Molm-13 cells by treatment with 0.1 μM ABT-199 as previously described (see Examples 6 and 24). Cells were treated with 0.1 μM ABT-199 and SRA141 for 72 hours at SRA141 concentrations of 0.04 μM to 3.30 μM.

The test system of another assay is Colo-205. Described as above. The following applies: Colo-205, 72 hours.
The next assay concerns SW620. Described as above. The following applies: SW620, 72 hours.
In another assay the test system is MV411. The description is as above. Particulars: MV411, 72 hours.
In the next assay the test system is AML-blast progenitors. Kind of assay: 3D growth in methylcellulose matrix, 14 days. It counts as cell-based. As to the method:
(§8) The anti-proliferative activity of SRA141 (0.3-5 μM) was also evaluated in additional 3D growth studies conducted in a methylcellulose growth matrix using normal human myeloid (n=3) and AML-blast progenitors incubated for 14 days.

The test system of assay [3] is normal human myeloid progenitors (normal bone marrow). Kind of assay: 3D growth in methylcellulose matrix, 14 days. It counts as cell-based. As to the method:
as §8

The subject of assay [4] is MOLM-13 cells. Kind of assay: Co-treatment combination screen, synergy score, ATPlite. It is filed as cell-based, human. The following applies: simultaneous combination treatment, 72 hours. The method, then: as §2, §3, §4, §5, §6, §7

On to `C[C@@]1(CO)[C@H](O)CC[C@@]2(C)[C@H]1CC[C@H]1C[C@@H]3C[C@@]12CC[C@]3(O)CO` [aphidicolin], for which, in assay [1] (1 μM SRA141 pre-treatment 48 hrs compared to DMSO pre-treatment), the “EC50 fold change of partner agent” value is listed as 4.60.

As for `N.N.[Cl][Pt][Cl]` [Cisplatin], the IC50 was 640 nM with EOL-1; 620 nM in the assay with MV-4-11; 380 nM in the assay on Molm-16; 11900 nM in the assay on AM5512; 1340 nM in the assay with AM7440; 4180 nM in the assay on AM7577.

On to `CC(=O)Nc1cccc(-n2c(=O)n(C3CC3)c(=O)c3c(Nc4ccc(I)cc4F)n(C)c(=O)c(C)c32)c1` [Trametinib], for which the “EC50 fold change of partner agent” value in the assay on MOLM-13 cells [2] came to 2.63.

In the case of `COc1c(OCCCN2CCOCC2)ccc2c1N=C(NC(=O)c1cnc(N)nc1)N1CCN=C21` [Copanlisib], the “synergy with SRA141” value in the assay with COLO-205 cells is reported as “Strong synergies”. The “combination effect with SRA141” value in the assay on MOLM-13 is “slight additive effects”; in the assay with Colo-205, “slight additive effect”; in the assay on SW620, “slight additive effects”; in the assay on MV411, “slight additive effects”.

Regarding `Nc1ccn([C@@H]2O[C@H](CO)[C@@H](O)[C@@H]2O)c(=O)n1` [Cytarabine, cytosine arabinoside, reference compound], the IC50 in the assay on EOL-1 (Homo sapiens, EOL1) is 2 nM; with MV-4-11 (Homo sapiens, MV4-11), 50 nM; with Molm-16 (MOLM16), 70 nM; with AM5512, 8890 nM; in the assay with AM7440, 270 nM; in the assay on AML-blast progenitors (AML810 censored, read-out: mean IC50, AML samples), roughly 4 nM. The IC50 with AML-blast progenitors (AML-blast progenitor 180, read-out: IC50) turned out to be 3.6 nM; in the assay with AML-blast progenitors (AML-blast progenitor 190, read-out: IC50) it was 6.1 nM; in the assay on AML-blast progenitors (AML-blast progenitor 200, read-out: IC50), 2.8 nM; with AML-blast progenitors (AML-blast progenitor 250, read-out: IC50), 2.2 nM; in the assay on AML-blast progenitors (AML-blast progenitor 260, read-out: IC50), 3 nM; with AML-blast progenitors (AML-blast progenitor 717, read-out: IC50), 3.8 nM. The IC50 in the assay with AML-blast progenitors (AML-blast progenitor 810 (sample censored), read-out: IC50) came out at 9.6 nM; in the assay with AML-blast progenitors (AML-blast progenitor 915, read-out: IC50), 8.1 nM; in the assay on AML-blast progenitors (AML-blast progenitor 917, read-out: IC50), 5.7 nM; with AML-blast progenitors (with AML 810, read-out: Mean AML-blast progenitor IC50 (with AML 810)) it was 5 ± 2.6 nM; with AML-blast progenitors (without AML 810, read-out: Mean AML-blast progenitor IC50 (without AML 810)), 4.4 ± 2 nM; in assay [3] (Normal bone marrow 111, read-out: IC50), 4.8 nM. The IC50 in [3] (Normal bone marrow 525 (first line), read-out: IC50) is 3.7 nM; in assay [3] (Normal bone marrow 525 (second line), read-out: IC50) it was 3.8 nM; in assay [3] (mean of 3 samples, read-out: Mean normal bone marrow IC50), 4.1 ± 0.6 nM; in [3] (read-out: mean IC50, normal bone marrow preparations), roughly 4 nM. Also, the “primary AML samples responding with a Therapeutic Index [(Primary AML IC50)÷(BMNC control IC50)]” value in the assay on AML-blast progenitors (9 primary AML samples) is recorded as 2 out of 9.

Take `CO[C@H]1C[C@@H]2CC[C@@H](C)[C@@](O)(O2)C(=O)C(=O)N2CCCC[C@H]2C(=O)O[C@H]([C@H](C)C[C@@H]2CC[C@@H](OCCO)[C@H](OC)C2)CC(=O)[C@H](C)/C=C(\C)[C@@H](O)[C@@H](OC)C(=O)[C@H](C)C[C@H](C)/C=C/C=C/C=C/1C` [everolimus]: the entries for the “EC50 fold change of partner agent” value (in assay [1] (200 nM SRA141 pre-treatment 48 hrs compared to DMSO pre-treatment); in the assay with MOLM-13 cells [2]) were 3.3 and 3.25, respectively.

`CC1(C)CCC(CN2CCN(c3ccc(C(=O)NS(=O)(=O)c4ccc(NCC5CCOCC5)c([N+](=O)[O-])c4)c(Oc4cnc5[nH]ccc5c4)c3)CC2)=C(c2ccc(Cl)cc2)C1` [ABT-199]: the “synergy with SRA141” value in the assay with MOLM-13 cells [4] is given as “strong synergies”. Moreover, the “Combination Index” value with MOLM-13 (0.1 μM ABT-199 with SRA141 at 0.12, 0.37, 1.10 and 3.30 μM, 72 hours) is reported as “less than 1”. Besides, in the assay on MOLM-13, the “combination effect with SRA141” value is reported as “act synergistically”.

As to `C=C(c1ccc(C(=O)O)cc1)c1cc2c(cc1C)C(C)(C)CCC2(C)C` [Bexarotene], the “EC50 fold change of partner agent” value with MOLM-13 cells [2] came to 2.63. The “synergy with SRA141” value in the assay with MOLM-13 cells [4] is “strong synergies”. Besides, the “combination effect with SRA141” value in the assay with MOLM-13 was “slight additive effects”; in the assay on Colo-205 it was “antagonistic effect”.

Consider `CC1=C(/C=C/C(C)=C/C=C/C(C)=C/C(=O)O)C(C)(C)CCC1` [Tretinoin], for which the “combination effect with SRA141” value with MOLM-13 and in the assay with MV411 was “slight additive effects” in each case.

Consider `Cn1ncnc1[C@H]1c2n[nH]c(=O)c3cc(F)cc(c23)N[C@@H]1c1ccc(F)cc1` [BMN673], for which the “synergy with SRA141” value in the assay with MOLM-13 cells [4] is reported as “strong synergies”.
